Assays:
rat = settings: cited from earlier work
[1] = tested on: white mustard (Sinapis alba L.); experiment: Growth chamber spray test, fresh mass of white mustard (Mecoprop ionic liquids); format: in vivo; settings: 0.001 M spray in water/ethanol (1:2), 200 L/ha, 2 weeks after application; for Reduction of fresh mass (%): vs unsprayed control
Procedure: The research was conducted under controlled environmental conditions in a dedicated growth chamber. The test plant was white mustard (Sinapis alba L.). Seeds were sown into soil-filled containers equal to the depth of 1 cm. After producing first leave, only 5 plants were allowed to stay in each pot. After producing the 3rd leaf, the plants were sprayed with the ionic liquids studied using a Tee Jet 1102 sprayer, the sprayer moving above the plants at a constant speed of 3.1 m/s. The spray distance from the tips of the plant was 40 cm, the pressure of liquid in sprayer was 0.2 MPa, and a liquid in the expenditure per 1 ha was 200 L.
Examples of the ionic liquids described herein were dissolved in a solution of water and ethanol (1:2) in an amount corresponding to a concentration of 0.001 mol/L, or 0.533 g/L [DDA][MCPP-P], 0.520 g/L [BA][MCPP-P], and 0.546 g/L [DOM] [MCPP-P]. As a comparison, a commercial product containing 600 g of the herbicide Mecoprop-P in 1 L was used. After spraying the plants, the pots were placed back in a growth chamber at a temperature of 20° C. (±2° C.) and humidity of 50%. The illumination time was 16 hours per day.
After a period of 2 weeks, the plants were cut to the soil level and weighed (0.1 g accuracy). A study was carried out in 4 replications in a completely randomized setup. The reduction of plant fresh weight as compared to control (no sprayed plants) was measured.

[2] = tested on: common poppy (Papaver rhoeas); experiment: Growth chamber spray test, fresh weight reduction (Glyphosate ionic liquids); format: in vivo; settings: 0.01 mol/L in water; 2 WAT
Procedure: Experiment in growth chamber: Temperature—20° C., humidity—60%, photoperiod (day/night hours)—16/8. The research was conducted under controlled environmental conditions in a dedicated growth chamber. The test plant was common poppy (Papaver rhoeas). The seeds were sown into soil-filled containers equal to the depth of 0.1 cm. After producing leaves, only 1 plant was allowed to stay in each pot. After producing the rosette, the plants were sprayed with the ionic liquids using a sprayer with Tee Jet 1102 nozzles. The sprayer was moving above the plants at a constant speed of 3.1 m/s. The spray distance from the tips of the plant was 40 cm, the pressure of liquid in sprayer was 0.2 MPa, and the liquid in the expenditure per 1 ha was 200 L.
The ionic liquids were dissolved in water in an amount corresponding to a concentration of 0.01 mol/L or 4.94 g/L [DDA][Glyphosate], 4.88 g/L [BA][Glyphosate]. As a comparison, a commercial product ROUNDUP™ containing 360 g of Glyphosate in 1 L was used. After spraying the plants, the pots were placed back in a growth chamber at a temperature of 20° C. (±2° C.) and humidity of 60%. The illumination time was 16 hours per day.
After a period of 2 weeks, the plants were cut right to the soil level and weighed (0.1 g accuracy). Fresh weight was used as the effect parameter. […]

[3] = tested on: common lambsquarters (Chenopodium album); experiment: Growth chamber spray test, fresh weight reduction (Dicamba ionic liquid); format: in vivo; settings: 2 WAT
[4] = tested on: cornflower (Centaurea cyanus); experiment: Field test, visual effectiveness of weed eradication; format: in vivo; settings: field plots, 4 WAT, mean estimate, solutions of 0.01 and 0.02 mol/dm^3, 100% = complete destruction
Procedure: (§1) Field test. The research was conducted in the Field Experimental Station of the Institute of Plant Protection in Winna Gora on the plots of dimensions 1.5 m×5 m. The test plants were common lambsquarters (Chenopodium album) and cornflower (Centaurea cyanus). The investigated ion pairs were alkyltrimethylammonium 3,6-dichloro-2-methoxybenzoate ([ATMA][Dicamba]) and didecyldimethylammonium 3,6-dichloro-2-methoxybenzoate ([DDA][Dicamba]).
(§2) Solutions of investigated ion pairs were prepared as follows: alkyltrimethylammonium 3,6-dichloro-2-methoxybenzoate [ATMA][Dicamba] and didecyldimethylammonium 3,6-dichloro-2-methoxybenzoate [DDA][Dicamba] were dissolved in a mixture of water and ethanol (1:1) in an amount corresponding to a concentration of 0.01 and 0.02 mol/dm^3. […] As controls, objects with no treatment were used and sprayed only with a solution of water and ethanol (1:1).
(§3) The procedures were performed using a sprayer equipped with a flat stream nozzles type Tee Jet 110 03 XR, with a steady pressure of 0.2 MPa and the expense of the liquid in use in 200 L per 1 hectare. During the procedure, the following weeds were at following developmental phases: common lambsquarters—from 4 to 10 leaves; and cornflower—a fully-formed rosette.
(§4) The effectiveness of weed eradication was evaluated visually by comparing the state of weeds on each plot treated with [DDA][Dicamba] and control solution.

[5] = tested on: common lambsquarters (Chenopodium album); experiment: as above; format: in vivo; settings: field plots, 4 WAT, mean estimate, solutions of 0.01 and 0.02 mol/dm^3, 100% = complete destruction
Procedure: as §1, §2, §3, §4

[6] = tested on: white mustard (Sinapis alba); experiment: Growth chamber spray test, fresh weight reduction (Dicamba ionic liquid); format: in vivo; settings: for Fresh weight reduction (%) Sinapis alba: 2 WAT
[7] = 0.001 mole/L in water/DMSO (2:1)
[8] = 0.002 mole/L in water/DMSO (2:1)
[9] = 0.004 mole/L in water/DMSO (2:1)

O=C(O)COc1ccc(Cl)cc1Cl [Example 2.4-D, 2,4-dichlorophenoxyacetic acid]
rat LD50 (rat): 639 to 764 mg/kg

Cc1cc(Cl)ccc1OCC(=O)O [MCPA, 4-chloro-2-methylphenoxyacetic acid]
rat LD50 (rat): 962 to 1470 mg/kg

Benzalkonium (±)-2-(4-chloro-2-methylphenoxy)propionate [[BA][MCPP]]
Fresh mass of white mustard [1]: 5.13 g
Reduction of fresh mass (%) [1]: 57.8%

Benzalkonium Glyphosate [[BA][Glyphosate]]
Fresh weight reduction of Papaver rhoeas (%) [2]: 84.0%

Didecyldimethylammonium 3,6-dichloro-2-methoxybenzoate [[DDA][Dicamba]]
Fresh weight reduction (%) Chenopodium album [3, 7]: 16.7%
Fresh weight reduction (%) Chenopodium album [3, 8]: 41.7%
Fresh weight reduction (%) Chenopodium album [3, 9]: 45.7%
Effectiveness of Weed Eradication (%) Centaurea cyanus [4]: 95%
Effectiveness of Weed Eradication (%) Chenopodium album [5]: 92%
Fresh weight reduction (%) Sinapis alba [6, 7]: 6.8%
Fresh weight reduction (%) Sinapis alba [6, 8]: 18.5%
Fresh weight reduction (%) Sinapis alba [6, 9]: 27.1%
Effect on the weight of Sinapis alba compared with neutral Dicamba ([6]; growth chamber, preliminary comparison): substantially more active than neutral Dicamba

Didecyldimethylammonium (+)-(R)-2-(4-chloro-2-methylphenoxy)propionate [[DDA][MCPP-P]]
Fresh mass of white mustard [1]: 4.78 g
Reduction of fresh mass (%) [1]: 60.7%

Didecyldimethylammonium Glyphosate [[DDA][Glyphosate]]
Fresh weight reduction of Papaver rhoeas (%) [2]: 78.3%

Domiphen (+)-(R)-2-(4-chloro-2-methylphenoxy)propionate [[DOM][MCPP-P]]
Fresh mass of white mustard [1]: 4.08 g
Reduction of fresh mass (%) [1]: 66.5%
